Like-named read-outs stand apart in the source and are kept apart here.
What was measured:
[1] = system: ex vivo guinea pig hearts; settings: for T1 relaxation time: LV tissue, 0.234 T
Protocol: Guinea pigs (450-500 g) were anaesthetised with sodium pentobarbital (intraperiotenal injection 100 mg). Hearts were rapidly excised and connected to the aortic cannula of a standard Langendorff perfusion system with conditions preset at 37° C. Perfusion with glucose-containing Krebs Henseleit's bicarbonate buffer (Krebs buffer) was maintained in the constant flow mode during the entire experiment by use of a finely adjustable pump. Under normal perfusion conditions coronary flow rate (CFR) was […] and during global, low flow ischemia 0.25 ml/min (92% reduction of normal CFR). Left ventricular (LV) developed pressure (LVDP) was measured by use of a LV fluid-filled balloon connected to a pressure transducer and recording device. At the end of the experiments excised samples from the LV were freeze-clamped, freeze-dried and prepared for analysis of LV contents of Mn metal by atomic absorbtion spectrophotometry and of ATP by high pressure liquid chromatography. Fresh, non-clamped LV samples were taken for immediate (within 30 min) measurements of tissue longitudinal (T1) relaxation time by use of a Bruker Minispec PC 110 spectrometer operating at 0.234 T and at a proton frequency of 10 MHz.
In normal perfusion experiments (series A) hearts were subjected to a 20 min control period before being perfused for 5 min with ascending concentrations (0-3000 μM) of MnDPDP present in the Krebs buffer. This was followed by 5 min perfusion with buffer only to ensure an effective washout of residual extracellular MnDPDP. In global ischemia experiments hearts were perfused at low flow (92% CFR reduction) with normal Krebs buffer. After different durations (0, 15, 30, 90, and 120 min) of ischemia MnDPDP (1000 μM, 3000 μM) was included in the buffer for a final 5 min period of low flow ischemia. The experiments were ended by 5 min perfusion at normal flow with anoxic and calcium-free Krebs buffer to ensure washout of residual extracellular MnDPDP without reactivating normal cardiac function. In the results (series B) the ischemia durations are presented as 0-5 min, 15-20 min, 30-35 min, 90-95 min, and 120-125 min.

[2] = system: regionally ischemic heart; settings: for Myocardial enhancement: normal myocardium
Protocol: Sprague-Dawley rats (250-300 g) were anaesthetised with 50 mg/kg sodium pentobarbital and mechanically ventilated after tracheostomy. For bolus injection of the contrast agent, a catheter was placed in the femoral vein. In order to produce regional ischemia, left thoracotomy was performed followed by occlusion of the anterior branch of the left coronary artery. The potential of various doses of MnDPDP in demarcating regional ischemia was determined. Four groups of animals were designed, each group (n=7-8 rats) received one bolus dose (1 ml/kg) of MnDPDP (0.005, 0.010, 0.020, or 0.040 mmol/kg). MR imaging was performed between 15-20 mins after acute coronary occlusion.
ECG-gated inversion recovery echoplanar images were acquired using a GE Omega 2.0 T system and a home-built 5.6 cm birdcage imaging coil. A blipped EPI of 64×64 points to define a […] (FOV) of 40×40 mm was used. TE was set to 10 msec by acquiring an asymmetric echo. Inversion recovery was accomplished using a composite non-selective inversion pulse which was carefully optimized prior to administration of the contrast medium. Shortly after the occlusion of the coronary vessel (15-25 mins), IR EP imaging was used to monitor bolus passage of MnDPDP through the regionally ischemic heart. Fully relaxed T1-sensitive inversion recovery EP images (TR=5 s) were acquired in a set of 16 images. Then, 32 inversion-recovery echoplanar images every 2 secs were obtained with inversion time of 700 msecs (to nullify myocardial signal) to monitor the dynamic T1 changes in myocardial signal intensity during the passage of the contrast medium. Changes in myocardial signal as a function of time were plotted. ROIs were obtained from non-ischemic and ischemic myocardium as well as from LV chamber blood. ROIs were determined on images acquired post-contrast injection, where the ischemic region is clearly defined. Alterations in signal intensity were referred to that of fully relaxed intensity (=100%).
At the conclusion of the imaging protocol, the presence of coronary occlusion and acute ischemia was confirmed at postmortem by injecting 0.5 ml/kg phthalocyanine blue dye intravenously. Blue dye was then allowed to circulate for 3 mins before the heart was excised.

[3] = system: normal and reperfused infarcted myocardium; settings: 90 minutes post injection
Protocol: Sprague-Dawley rats (female, 270-320 g, n=24) were subjected to occlusion of the anterior branch of the left main coronary artery for 60 minutes, followed by reperfusion for 120 minutes before injecting the test agent. A catheter was placed in the tail vein for administration of contrast media. Animals were connected to an ECG patient monitor and placed in the magnet such that the heart of each rat was at or near ioscenter. Magnetic field was optimized for a central slab of 6 mm thickness, within which the 2 mm section to be imaged was located. Inversion and slice select pulses were calibrated. Inversion recovery echo planar imaging was then used to measure baseline T1 values for myocardium and left ventricle chamber blood.
MnDPDP was then administered at doses of 25, 50 and 100 μmole/kg by intravenous injection of 2.5, 5 and 10 ml/kg, respectively, of the test solution which contained a 10 mM solution of MnDPDP. These injections were followed by a flush of physiologic saline solution (0.9%) such that the combined volumes of test agent and saline flush was 11 ml/kg. All injected solutions were warmed before being administered and were injected slowly over 1.5 mins. T1 values were remeasured at 5 minute intervals during the first 60 minutes after injection. Occasional animals were imaged at 90 minutes for T1 determination (EPI) and for visual inspection of contrast on STIR (short TI inversion recovery) prepared spin echo images.

[4] = MnDPDP 300 μM, versus control hearts
[5] = MnDPDP 1000 μM, versus control hearts
[6] = MnDPDP 3000 μM, versus control hearts

Compound: Cc1ncc(COP(=O)(O)O)c(CN(CCN(CC(=O)[O-])Cc2c(COP(=O)(O)O)cnc(C)c2O)CC(=O)[O-])c1O.[Mn+2] [MnDPDP, manganese (II) chelate of N,N′-bis-(pyridoxal-5-phosphate)-ethylenediamine-N,N′-diacetic acid]
- Tissue Mn content ([1]; MnDPDP 30 μM 5 min, then 5 min washout, n = 6, mean (SD)): 11.0(1.5) μmole/100 g dry wt
- T1 relaxation time ([1]; MnDPDP 30 μM, n = 6, mean (SD)): 871(93) msec
- Tissue Mn content ([1]; MnDPDP 100 μM 5 min, then 5 min washout, n = 6, mean (SD)): 12.2(2.4) μmole/100 g dry wt
- T1 relaxation time ([1]; MnDPDP 100 μM, n = 6, mean (SD)): 808(81) msec
- depression of LVDP ([1]; MnDPDP 300 μM): 10%
- Tissue Mn content ([1]; MnDPDP 300 μM 5 min, then 5 min washout, n = 6, mean (SD)): 23.2(4.1) μmole/100 g dry wt
- fold increase in Mn content [1, 4]: 5-6 fold
- reduction in T1 [1, 4]: 40%
- T1 relaxation time ([1]; MnDPDP 300 μM, n = 6, mean (SD)): 619(18) msec
- Tissue Mn content ([1]; MnDPDP 1000 μM 5 min, then 5 min washout, n = 6, mean (SD)): 45.4(10.8) μmole/100 g dry wt
- factor by which tissue Mn content was raised above the control level in non-treated hearts ([1]; MnDPDP 1000 μM at onset (0-5 min) of ischemia): 2-3
- Tissue Mn content ([1]; MnDPDP 1000 μM during last 5 min, ischemia 0-5 min, n = 4, mean (SD)): 10.5(3.6) μmole/100 g dry wt
- Tissue Mn content ([1]; MnDPDP 1000 μM during last 5 min, ischemia 15-20 min, n = 4, mean (SD)): 9.9(2.3) μmole/100 g dry wt
- Tissue Mn content ([1]; MnDPDP 1000 μM during last 5 min, ischemia 30-35 min, n = 4, mean (SD)): 4.3(1.6) μmole/100 g dry wt
- Tissue Mn content ([1]; MnDPDP 1000 μM during last 5 min, ischemia 90-95 min, n = 4, mean (SD)): 5.7(2.4) μmole/100 g dry wt
- Tissue Mn content ([1]; MnDPDP 1000 μM during last 5 min, ischemia 120-125 min, n = 4, mean (SD)): 5.6(2.3) μmole/100 g dry wt
- fold rise in Mn content [1, 5]: 11 fold
- reduction in T1 values [1, 5]: 55%
- T1 relaxation time ([1]; MnDPDP 1000 μM, n = 6, mean (SD)): 461(85) msec
- Tissue Mn content ([1]; MnDPDP 3000 μM 5 min, then 5 min washout, n = 6, mean (SD)): 70.4(14.9) μmole/100 g dry wt
- factor by which tissue Mn content was raised above the control level in non-treated hearts ([1]; MnDPDP 3000 μM at onset (0-5 min) of ischemia): 4-5
- Tissue Mn content ([1]; MnDPDP 3000 μM during last 5 min, ischemia 0-5 min, n = 4, mean (SD)): 16.5(2.4) μmole/100 g dry wt
- Tissue Mn content ([1]; MnDPDP 3000 μM during last 5 min, ischemia 15-20 min, n = 4, mean (SD)): 12.9(4.0) μmole/100 g dry wt
- Tissue Mn content ([1]; MnDPDP 3000 μM during last 5 min, ischemia 30-35 min, n = 4, mean (SD)): 6.0(2.2) μmole/100 g dry wt
- Tissue Mn content ([1]; MnDPDP 3000 μM during last 5 min, ischemia 90-95 min, n = 4, mean (SD)): 7.2(2.8) μmole/100 g dry wt
- fold rise in Mn content [1, 6]: 17 fold
- reduction in T1 values [1, 6]: 70%
- T1 relaxation time ([1]; MnDPDP 3000 μM, n = 6, mean (SD)): 341(46) msec
- tissue Mn contents, normal perfusion conditions relative to early ischemic conditions (0-5 min) ([1]; Table 1 versus Table 3): approximately 4 times
- LVDP after washout ([1]; following 5 min of MnDPDP washout): returns rapidly to control values
- LVDP during perfusion ([1]; higher concentrations of MnDPDP): falls rapidly
- tissue Mn content compared with normally perfused non-treated hearts ([1]; ischemic durations of 30-35 min, 90-95 min, and 120-125 min): not significantly different
- delineation of the ischemic region ([2]; 0.005 mmol/kg): insufficient to provide clear delineation of the ischemic region
- delineation of the ischemic region ([2]; 0.010, 0.020, and 0.040 mmol/kg): the ischemic region was identified as a region of very low signal
- Myocardial enhancement ([2]; 5 micromole/kg bolus): 23±2 % of fully relaxed images
- Myocardial enhancement ([2]; 10 micromole/kg bolus): 28±2 % of fully relaxed images
- Myocardial enhancement ([2]; 20 micromole/kg bolus): 34±5 % of fully relaxed images
- Myocardial enhancement ([2]; 40 micromole/kg bolus): 48±4 % of fully relaxed images
- SI normal/SI infarct, conventional T1 weighted images ([3]; highest dose): 1.15
- SI normal/SI infarct, STIR sequences ([3]; lowest dose): 0.85-1.3
- SI normal/SI infarct, conventional T1 weighted images ([3]; lowest dose (n=1)): about 1.25

From patent US20020090341A1, “Method” (NYCOMED IMAGING AS, priority 1997, published 2002)
